Laboratory results taken from PMC7138307 (PLoS ONE, 2020).

Key:
Experiment in all cases: In vivo target engagement, KiNativ ADP probe, mouse brain lysates
FES = target: T1, FES (Mus musculus, UniProt P16879); conditions: 75 mg/kg I.P., one hour, peptide LRADNTPVAVKSCR, Lys1
T1 construct: homogenized brain lysates were labeled with Desthiobiotin-ADP-acyl phosphate probe; from tissue; host or cells: mouse cortical brain lysate
Description: (§1) To determine both in vivo target engagement and identify any potential off-target kinases inhibited by BIIB-TTBKi, we used a combination of desthiobiotin-ATP/ADP probes to covalently bind and biotinylate the conserved lysine residues at the active site of protein kinases (ActivX-KiNativ; Kyorin Pharmaceuticals, Ltd, Tokyo Japan). […] Lysates were trypsin digested and desthiobiotinylated peptides were captured on streptavidin beads. A list of 269 unique peptides were quantified through LC-MS/MS parallel reaction monitoring method. Target engagement was calculated as the percentage of peptide signal lost after addition of BIIB-TTBKi when compared to the vehicle treated lysate. Using the ADP probe, we were able to detect a total of 150 kinases in the mouse cortical brain lysates (Fig 5A).
(§2) Mice were euthanized one hour following injection and homogenized brain lysates were labeled with Desthiobiotin-ADP-acyl phosphate probe (ADP probe). Desthiobiotinylated peptides were captured on streptavidin beads and peptides were quantified through LC-MS/MS parallel reaction monitoring method. Target engagement was calculated as the percentage of peptide signal lost when compared to the vehicle treated lysate. (A) Visualization of the off-target effects of BIIB-TTBKi at 75mg/kg. The ADP probe labelled around 150 unique kinases in mouse cortical brain lysates.

PIP4K2C = target: T2, PIP4K2C (Mus musculus, UniProt Q91XU3); conditions: 75 mg/kg I.P., one hour, peptide TLVIKEVSSEDIADMHSNLSNYHQYIVK, ATP site
T2 construct: from tissue; host or cells: mouse cortical brain lysate
T2 sequence (Q91XU3 1-421): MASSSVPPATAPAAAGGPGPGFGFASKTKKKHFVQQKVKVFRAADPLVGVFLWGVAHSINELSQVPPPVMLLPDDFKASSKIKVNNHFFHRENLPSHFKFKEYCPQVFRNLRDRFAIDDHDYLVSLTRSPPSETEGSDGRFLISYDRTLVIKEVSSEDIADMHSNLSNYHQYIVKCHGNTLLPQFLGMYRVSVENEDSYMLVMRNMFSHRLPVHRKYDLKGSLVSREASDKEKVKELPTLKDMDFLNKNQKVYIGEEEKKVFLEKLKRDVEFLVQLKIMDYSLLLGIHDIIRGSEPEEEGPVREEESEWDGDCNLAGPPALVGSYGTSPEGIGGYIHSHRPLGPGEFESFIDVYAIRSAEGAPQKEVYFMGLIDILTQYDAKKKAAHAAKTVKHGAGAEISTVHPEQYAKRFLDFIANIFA
Description: as §1, §2

PIP5K3 = target: T3, PIP5K3 (Mus musculus, UniProt Q9Z1T6); conditions: 75 mg/kg I.P., one hour, peptide GGKSGAAFYATEDDRFILK, ATP site
T3 construct: homogenized brain lysates were labeled with Desthiobiotin-ADP-acyl phosphate probe; from tissue; host or cells: mouse cortical brain lysate
Description: as §1, §2

TTBK1, TTBK2 = conditions: 75 mg/kg I.P., one hour, peptide DIKPSNFAMGR, Lys2
Description: as §1, §2

T3 sequence (Q9Z1T6 whole entry): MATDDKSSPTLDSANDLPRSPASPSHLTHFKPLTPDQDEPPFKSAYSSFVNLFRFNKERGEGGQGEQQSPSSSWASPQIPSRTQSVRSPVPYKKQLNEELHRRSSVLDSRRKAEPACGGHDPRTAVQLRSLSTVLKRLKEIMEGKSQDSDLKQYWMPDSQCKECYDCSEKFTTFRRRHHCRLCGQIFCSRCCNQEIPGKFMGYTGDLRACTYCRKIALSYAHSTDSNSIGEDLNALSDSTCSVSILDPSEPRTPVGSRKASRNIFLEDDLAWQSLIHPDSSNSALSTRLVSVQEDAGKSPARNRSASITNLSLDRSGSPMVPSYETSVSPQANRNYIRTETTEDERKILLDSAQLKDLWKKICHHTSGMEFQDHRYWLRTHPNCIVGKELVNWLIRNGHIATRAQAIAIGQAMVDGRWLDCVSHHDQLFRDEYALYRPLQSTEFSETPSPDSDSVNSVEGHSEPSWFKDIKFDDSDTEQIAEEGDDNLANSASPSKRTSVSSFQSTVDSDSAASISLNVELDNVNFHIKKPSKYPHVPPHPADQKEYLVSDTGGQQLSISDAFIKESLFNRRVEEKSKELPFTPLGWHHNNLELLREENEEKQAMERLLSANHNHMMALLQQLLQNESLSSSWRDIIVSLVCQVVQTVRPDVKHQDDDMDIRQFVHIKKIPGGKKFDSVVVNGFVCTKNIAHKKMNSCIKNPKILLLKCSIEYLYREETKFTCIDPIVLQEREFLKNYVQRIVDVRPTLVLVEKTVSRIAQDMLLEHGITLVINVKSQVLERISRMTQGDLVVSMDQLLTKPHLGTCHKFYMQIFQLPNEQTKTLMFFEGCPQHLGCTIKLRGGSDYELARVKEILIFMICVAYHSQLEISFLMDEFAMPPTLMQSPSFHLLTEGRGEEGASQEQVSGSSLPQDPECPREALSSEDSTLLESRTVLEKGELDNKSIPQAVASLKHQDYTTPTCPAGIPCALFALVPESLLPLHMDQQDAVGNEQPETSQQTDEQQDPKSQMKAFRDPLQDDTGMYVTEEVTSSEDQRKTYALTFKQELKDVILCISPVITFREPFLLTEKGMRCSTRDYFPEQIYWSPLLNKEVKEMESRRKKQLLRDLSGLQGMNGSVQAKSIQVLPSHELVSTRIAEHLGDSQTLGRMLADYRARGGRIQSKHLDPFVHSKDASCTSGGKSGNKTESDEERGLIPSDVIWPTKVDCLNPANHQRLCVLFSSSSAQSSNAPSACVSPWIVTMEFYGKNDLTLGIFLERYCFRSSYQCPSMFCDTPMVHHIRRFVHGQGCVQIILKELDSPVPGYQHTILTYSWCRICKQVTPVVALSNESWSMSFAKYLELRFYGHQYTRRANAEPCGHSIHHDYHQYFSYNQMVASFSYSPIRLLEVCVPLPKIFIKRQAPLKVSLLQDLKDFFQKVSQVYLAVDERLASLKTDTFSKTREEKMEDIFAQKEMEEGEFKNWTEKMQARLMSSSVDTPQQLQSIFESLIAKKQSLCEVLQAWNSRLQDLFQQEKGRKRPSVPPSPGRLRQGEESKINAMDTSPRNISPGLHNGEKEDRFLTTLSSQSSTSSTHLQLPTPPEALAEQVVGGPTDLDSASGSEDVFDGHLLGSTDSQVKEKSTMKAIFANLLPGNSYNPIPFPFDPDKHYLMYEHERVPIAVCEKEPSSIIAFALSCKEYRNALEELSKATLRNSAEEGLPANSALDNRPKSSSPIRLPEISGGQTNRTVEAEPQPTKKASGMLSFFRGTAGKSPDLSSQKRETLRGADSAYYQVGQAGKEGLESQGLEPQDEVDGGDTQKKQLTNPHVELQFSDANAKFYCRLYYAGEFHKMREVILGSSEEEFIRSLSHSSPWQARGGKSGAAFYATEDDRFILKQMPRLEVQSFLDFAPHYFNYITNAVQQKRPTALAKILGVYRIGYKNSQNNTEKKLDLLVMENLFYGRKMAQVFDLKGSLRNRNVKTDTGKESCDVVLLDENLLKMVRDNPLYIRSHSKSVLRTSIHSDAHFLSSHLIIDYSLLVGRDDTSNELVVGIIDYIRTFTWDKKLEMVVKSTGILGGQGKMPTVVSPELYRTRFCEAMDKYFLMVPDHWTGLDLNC
T1 sequence (P16879 whole entry): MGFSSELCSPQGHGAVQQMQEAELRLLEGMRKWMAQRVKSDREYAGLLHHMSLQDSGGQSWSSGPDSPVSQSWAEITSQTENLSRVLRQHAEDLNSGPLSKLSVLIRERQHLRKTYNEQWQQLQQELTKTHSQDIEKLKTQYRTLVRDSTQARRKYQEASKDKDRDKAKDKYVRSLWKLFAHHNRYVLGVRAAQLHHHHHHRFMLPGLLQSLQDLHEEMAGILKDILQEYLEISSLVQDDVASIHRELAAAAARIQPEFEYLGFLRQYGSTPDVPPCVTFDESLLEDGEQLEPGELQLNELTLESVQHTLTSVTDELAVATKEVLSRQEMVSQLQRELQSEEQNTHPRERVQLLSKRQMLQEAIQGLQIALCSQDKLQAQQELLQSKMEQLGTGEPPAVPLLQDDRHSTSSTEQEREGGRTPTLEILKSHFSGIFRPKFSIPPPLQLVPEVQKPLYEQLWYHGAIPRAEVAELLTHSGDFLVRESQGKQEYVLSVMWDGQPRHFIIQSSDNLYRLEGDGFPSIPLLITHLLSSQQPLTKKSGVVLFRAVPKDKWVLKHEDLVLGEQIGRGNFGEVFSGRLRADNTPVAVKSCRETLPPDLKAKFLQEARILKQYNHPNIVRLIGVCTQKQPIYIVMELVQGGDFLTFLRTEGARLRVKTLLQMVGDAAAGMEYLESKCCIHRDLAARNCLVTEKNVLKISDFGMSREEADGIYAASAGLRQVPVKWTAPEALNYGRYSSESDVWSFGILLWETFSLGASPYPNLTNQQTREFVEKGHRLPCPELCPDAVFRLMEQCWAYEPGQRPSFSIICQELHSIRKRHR

CCC(C)(O)C#Cc1cc2c(ccn2-c2ccnc(N)n2)cn1 (stereo not shown) [BIIB-TTBK1i]
Percent Inhibition with BIIB-TTBKi at 75mpk (FES): 50.6% | Percent Inhibition with BIIB-TTBKi at 75mpk (PIP4K2C): 86.3% | Percent Inhibition with BIIB-TTBKi at 75mpk (PIP5K3): 90% | Percent Inhibition with BIIB-TTBKi at 75mpk (TTBK1, TTBK2): 82%
